What was measured:
[1] = molecular target: T1, MLKL (Homo sapiens, UniProt Q8NB16); experiment: MLKL degradation assay in HepG2 cell line (western blot); assay type: cell-based; set-up: endogenous in cells; host or cells: HepG2 or HaCaT; settings: cell line not given; for Degradation assay (Degradation %) 1 μM: compound 1 μM; for Degradation assay (Degradation %) 10 μM: compound 10 μM
T1 sequence (Q8NB16 1-471): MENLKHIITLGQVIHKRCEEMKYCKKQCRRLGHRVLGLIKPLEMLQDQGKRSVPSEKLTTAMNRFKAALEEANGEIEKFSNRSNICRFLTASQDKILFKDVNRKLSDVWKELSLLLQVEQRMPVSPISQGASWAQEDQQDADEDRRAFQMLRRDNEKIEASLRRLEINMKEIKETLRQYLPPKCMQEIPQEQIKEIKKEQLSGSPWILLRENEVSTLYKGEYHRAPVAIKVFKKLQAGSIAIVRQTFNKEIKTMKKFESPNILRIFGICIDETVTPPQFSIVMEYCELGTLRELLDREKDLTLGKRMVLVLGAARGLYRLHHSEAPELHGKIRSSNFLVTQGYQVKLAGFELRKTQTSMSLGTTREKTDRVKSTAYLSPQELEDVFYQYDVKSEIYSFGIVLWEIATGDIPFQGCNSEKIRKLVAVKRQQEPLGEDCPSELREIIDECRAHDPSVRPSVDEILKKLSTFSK
Procedure, shortened: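 HepG2 cells were treated 20-24 h at 37 °C with compound at 1 or 10 μM final. RIPA lysates were normalized by BCA, and 10-15 μg protein per lane was resolved by SDS-PAGE. MLKL was detected by western blot with chemiluminescence.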

[2] = test system: FADD−/− Jurkat cells; experiment: Necroptosis inhibition assay, TNF-α-induced necroptosis (CellTiter-Glo 2.0); assay type: cell-based, human; settings: TNF-α 15 ng/mL; for Necroptosis inhibition assay (Rescue %) 1 μM: compound 1 μM; for Necroptosis inhibition assay (Rescue %) 10 μM: compound 10 μM
Procedure, shortened: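 FADD−/− Jurkat cells preincubated 30 min at room temperature with compound at 0.1, 1 and 10 μM final, then stimulated with TNF-α (15 ng/mL final) for 20–24 h at 37 °C, 5% CO2. Viability read as ATP luminescence; cytotoxicity and necroptosis inhibition rate calculated from luminescence values.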

[3] = molecular target: T1, MLKL; experiment: Measurement of binding affinity with MLKL receptor (competitive binding assay, Kd); set-up: made in house; host or cells: HEK 293 cell line (T7 phage in E. coli BL21-derived host is also described)
Procedure, shortened: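 Kd comes from a bead-based competition format: compound-dependent loss of DNA-tagged, HEK 293-expressed MLKL capture, measured as eluate kinase by qPCR. Final DMSO is 0.9%.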

| Degradation assay (Degradation %) 1 μM [1] | Degradation assay (Degradation %) 10 μM [1] | Kd [3] | SMILES | Necroptosis inhibition assay (Rescue %) 1 μM [2] | Necroptosis inhibition assay (Rescue %) 10 μM [2] |
| --- | --- | --- | --- | --- | --- |
| 53.99% | 39.22% | 9.3 nM | Nc1ncc(-c2cnn(C3CCN(C(=O)C4CCN(c5ccc6c(c5)C(=O)N(C5CCC(=O)NC5=O)C6=O)CC4)CC3)c2)nc1C(=O)OC(C(=O)Nc1ccc(F)cc1)c1ccccc1 (centres unmarked) [TDH-280, 2-((4-fluorophenyl)amino)-2-oxo-1-phenylethyl 3-amino-6-(1-(1-(1-(2-(2,6-dioxopiperidin-3-yl)-1,3-dioxoisoindolin-5-yl)piperidine-4-carbonyl)piperidin-4-yl)-1H-pyrazol-4-yl)pyrazine-2-carboxylate] | 33.16% | 19.54% |
| 45.01% | 10.1% | 5.7 nM | Nc1ncc(-c2cnn([C@H]3CCN(CC4CCN(C(=O)CNc5cccc6c5C(=O)N(C5CCC(=O)NC5=O)C6=O)CC4)C3)c2)nc1C(=O)OC(C(=O)Nc1ccc(F)cc1)c1ccccc1 (stereo partly drawn) [TDH-281, 2-((4-fluorophenyl)amino)-2-oxo-1-phenylethyl 3-amino-6-(1-((3S)-1-((1-((2-(2,6-dioxopiperidin-3-yl)-1,3-dioxoisoindolin-4-yl)glycyl)piperidin-4-yl)methyl)pyrrolidin-3-yl)-1H-pyrazol-4-yl)pyrazine-2-carboxylate] | 29.65% | 26.95% |
| 60.51% | 58.02% | 5.6 nM | Nc1ncc(-c2cnn([C@H]3CCN(CC4CCN(C(=O)CNc5ccc6c(c5)C(=O)N(C5CCC(=O)NC5=O)C6=O)CC4)C3)c2)nc1C(=O)OC(C(=O)Nc1ccc(F)cc1)c1ccccc1 (stereo partly drawn) [TDH-282, 2-((4-fluorophenyl)amino)-2-oxo-1-phenylethyl 3-amino-6-(1-((3S)-1-((1-((2-(2,6-dioxopiperidin-3-yl)-1,3-dioxoisoindolin-5-yl)glycyl)piperidin-4-yl)methyl)pyrrolidin-3-yl)-1H-pyrazol-4-yl)pyrazine-2-carboxylate] | 77.92% | 67.84% |
| 4.29% | 31.1% | 2.1 nM | Nc1ncc(-c2cnn([C@H]3CCN(CC4CCN(C(=O)COc5cccc6c5C(=O)N(C5CCC(=O)NC5=O)C6=O)CC4)C3)c2)nc1C(=O)OC(C(=O)Nc1ccc(F)cc1)c1ccccc1 (stereo partly drawn) [TDH-283, 2-((4-fluorophenyl)amino)-2-oxo-1-phenylethyl 3-amino-6-(1-((3S)-1-((1-(2-((2-(2,6-dioxopiperidin-3-yl)-1,3-dioxoisoindolin-4-yl)oxy)acetyl)piperidin-4-yl)methyl)pyrrolidin-3-yl)-1H-pyrazol-4-yl)pyrazine-2-carboxylate] | 44.29% | 54.92% |
| 42.05% | 58.09% | 2.6 nM | Nc1ncc(-c2cnn([C@H]3CCN(CC4CCN(C(=O)COc5ccc6c(c5)C(=O)N(C5CCC(=O)NC5=O)C6=O)CC4)C3)c2)nc1C(=O)OC(C(=O)Nc1ccc(F)cc1)c1ccccc1 (stereo partly drawn) [TDH-284, 2-((4-fluorophenyl)amino)-2-oxo-1-phenylethyl 3-amino-6-(1-((3S)-1-((1-(2-((2-(2,6-dioxopiperidin-3-yl)-1,3-dioxoisoindolin-5-yl)oxy)acetyl)piperidin-4-yl)methyl)pyrrolidin-3-yl)-1H-pyrazol-4-yl)pyrazine-2-carboxylate] | 75.95% | 52.77% |
| 56.55% | 50.66% | 13 nM | Nc1ncc(-c2cnn([C@@H]3CCN(CC4CCN(C(=O)CNc5cccc6c5C(=O)N(C5CCC(=O)NC5=O)C6=O)CC4)C3)c2)nc1C(=O)OC(C(=O)Nc1ccc(F)cc1)c1ccccc1 (stereo partly drawn) [TDH-285, 2-((4-fluorophenyl)amino)-2-oxo-1-phenylethyl 3-amino-6-(1-((3R)-1-((1-((2-(2,6-dioxopiperidin-3-yl)-1,3-dioxoisoindolin-4-yl)glycyl)piperidin-4-yl)methyl)pyrrolidin-3-yl)-1H-pyrazol-4-yl)pyrazine-2-carboxylate] | 36.72% | 40.43% |
| 71.83% | 71.94% | 12 nM | Nc1ncc(-c2cnn([C@@H]3CCN(CC4CCN(C(=O)CNc5ccc6c(c5)C(=O)N(C5CCC(=O)NC5=O)C6=O)CC4)C3)c2)nc1C(=O)OC(C(=O)Nc1ccc(F)cc1)c1ccccc1 (stereo partly drawn) [TDH-286, 2-((4-fluorophenyl)amino)-2-oxo-1-phenylethyl 3-amino-6-(1-((3R)-1-((1-((2-(2,6-dioxopiperidin-3-yl)-1,3-dioxoisoindolin-5-yl)glycyl)piperidin-4-yl)methyl)pyrrolidin-3-yl)-1H-pyrazol-4-yl)pyrazine-2-carboxylate] | 88.45% | 79.75% |
| 75.04% | 65.94% | 3.7 nM | Nc1ncc(-c2cnn([C@@H]3CCN(CC4CCN(C(=O)COc5cccc6c5C(=O)N(C5CCC(=O)NC5=O)C6=O)CC4)C3)c2)nc1C(=O)OC(C(=O)Nc1ccc(F)cc1)c1ccccc1 (stereo partly drawn) [TDH-287, 2-((4-fluorophenyl)amino)-2-oxo-1-phenylethyl 3-amino-6-(1-((3R)-1-((1-(2-((2-(2,6-dioxopiperidin-3-yl)-1,3-dioxoisoindolin-4-yl)oxy)acetyl)piperidin-4-yl)methyl)pyrrolidin-3-yl)-1H-pyrazol-4-yl)pyrazine-2-carboxylate] | 71.05% | 72.7% |
| 75.31% | 89.16% | 5.2 nM | Nc1ncc(-c2cnn([C@@H]3CCN(CC4CCN(C(=O)COc5ccc6c(c5)C(=O)N(C5CCC(=O)NC5=O)C6=O)CC4)C3)c2)nc1C(=O)OC(C(=O)Nc1ccc(F)cc1)c1ccccc1 (stereo partly drawn) [TDH-288, 2-((4-fluorophenyl)amino)-2-oxo-1-phenylethyl 3-amino-6-(1-((3R)-1-((1-(2-((2-(2,6-dioxopiperidin-3-yl)-1,3-dioxoisoindolin-5-yl)oxy)acetyl)piperidin-4-yl)methyl)pyrrolidin-3-yl)-1H-pyrazol-4-yl)pyrazine-2-carboxylate] | 70.93% | 66.54% |
| 66.33% | 43.03% | 2.2 nM | Nc1ncc(-c2cnn(C3CCN(CCC4CCN(C(=O)C5CCN(c6cccc7nnn(C8CCC(=O)NC8=O)c(=O)c67)CC5)CC4)CC3)c2)nc1C(=O)OC(C(=O)Nc1ccc(F)cc1)c1ccccc1 (centres unmarked) [TDH-289, 2-((4-fluorophenyl)amino)-2-oxo-1-phenylethyl 3-amino-6-(1-(1-(2-(1-(1-(3-(2,6-dioxopiperidin-3-yl)-4-oxo-3,4-dihydrobenzo[d][1,2,3]triazin-5-yl)piperidine-4-carbonyl)piperidin-4-yl)ethyl)piperidin-4-yl)-1H-pyrazol-4-yl)pyrazine-2-carboxylate] | 67.46% | 61.24% |
